Tests used:
[1] = tested on: NB4 cells (human promyelocitic leukemia); assay: Differentiation of NB4 cells into granulocytes, NBT dye reduction, spectrophotometric assay at 540 nm; format: cell-based; conditions: 2-3 days, FIG. 2
Experimental: The pro-differentiative activity of the spirolaxine (ST 1397) and the ATRA, both alone and in association, was assessed in this experimental model.
NB4 cells were grown in 25 cm^2 flasks at a density of approx 100.000 cells/ml in 5 ml of RPMI 1640 culture with 10% fetal calf serum (FCS). After one day, the cells were treated with ATRA at a concentration of 10^−7 M, or with ST 1397 at doses of 0,1, 0,5 and 1 μM, or with equivalent volumes of the two compounds in association. Then, the cells were put into the incubator for 2-3 days, without replacing the culture medium.
At the end of the second or third day of treatment, the differentiation of the cells into granulocytes was measured by the NBT dye reduction and the spectrophotomectric assay of the samples.
The retinoic acid was dissolved in the culture medium with a solution of DMSO 1 mM. Control cultures were treated with equivalent volumes of DMSO, since this compound (DMSO) can be differentiating in certain experimental conditions.
To measure the differentiative effect, 500.000 cells have been gathered from each sample, centrifuged and re-suspended in 1 ml of RPMI 1640 culture with 10% serum, 1 mg/ml of nitroblue tetrazolium (NBT) and 100 ng of PMA. The re-suspended cells were incubated at 37° C. for 20-60 min. […]
The samples were sonicated to complete lysis and then read with a spectrophotometer at a wave length of 540 nm.

PPARγ receptor = target: T1, PPARγ receptor (Homo sapiens, UniProt P37231); assay: Activation of PPARγ: cellular transfection with PPAR-γ plasmid and TK-PPAR-Reluc luciferase reporter vector; conditions: NIH-3T3 murine fibroblasts, 24 hour-treatment, spirolaxine 40 nM, FIG. 1
T1 sequence (P37231 1-505): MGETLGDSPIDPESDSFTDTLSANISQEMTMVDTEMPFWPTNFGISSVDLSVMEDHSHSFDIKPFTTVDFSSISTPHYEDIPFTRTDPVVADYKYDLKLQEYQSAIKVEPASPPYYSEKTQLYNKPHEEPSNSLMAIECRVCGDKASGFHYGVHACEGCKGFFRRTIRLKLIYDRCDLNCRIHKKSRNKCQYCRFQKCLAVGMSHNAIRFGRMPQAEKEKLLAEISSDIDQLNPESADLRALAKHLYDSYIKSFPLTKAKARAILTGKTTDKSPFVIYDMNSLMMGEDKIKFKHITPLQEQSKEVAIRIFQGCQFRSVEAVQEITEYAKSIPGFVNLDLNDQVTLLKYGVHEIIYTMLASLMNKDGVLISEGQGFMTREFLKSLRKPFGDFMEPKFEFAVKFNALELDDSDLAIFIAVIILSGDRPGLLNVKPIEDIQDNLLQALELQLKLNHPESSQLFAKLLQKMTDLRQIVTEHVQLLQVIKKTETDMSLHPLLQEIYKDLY
Experimental: The activation of the expression of the luciferase was put into evidence by transfecting the NIH-3T3 murine fibroblasts with the PPAR-γ plasmid and the TK-PPAR-Reluc reporter vector; the luciferase activity was measured after 24 hour-treatment with the spirolaxine at a concentration of 40 nM.

SMILES | differentiation in NB4 cells (NBT reduction) ([1]; ATRA alone at 10^−7 M) | differentiation in NB4 cells (NBT reduction) ([1]; ST 1397 alone at 0,1, 0,5 and 1 μM) | luciferase activity mediated by the TK-PPAR-Reluc reporter vector (index of activation of the receptor) versus control (PPARγ receptor)
CC1=C(/C=C/C(C)=C/C=C/C(C)=C/C(=O)O)C(C)(C)CCC1 [ATRA, all-trans retinoic acid, reference compound] | differentiative effect was already well known |  | 
COc1cc(O)cc2c1C(=O)OC2CCCCCC1CCCC2(CCC(C)O2)O1 (stereo not drawn) [spirolaxine] |  | does not induce differentiation | seven times higher than the control

Reference: patent US7276533B2, “Compositions useful for the treatment of pathologies responding to the activation of PPAR-gamma receptor” (Sigma-Tau Industrie Farmaceutiche Riunite S.p.A., priority 2001, dated 2007)
